Laboratory results reported in patent publication US9271978B2 (Zenith Epigenetics Corp., priority 2012, dated 2016).

How the values were obtained:
Set-up in all cases: key: Active: Compounds with an IC50 value less than 30 μM were deemed to be active.; Not Active: Compounds with an IC50 value less than 30 μM were deemed to be active
[1] = system: human AML MV-4-11 (CRL-9591) cells; assay: Inhibition of cell proliferation in MV4-11 cells; assay type: cell-based; conditions: human AML MV-4-11 cells, 72 h; active = IC50 <30 μM
Description: MV4-11 cells: 96-well plates were seeded with 5×10^4 cells per well of exponentially growing human AML MV-4-11 (CRL-9591) cells and immediately treated with two-fold dilutions of test compounds, ranging from 30 μM to 0.2 μM. Triplicate wells were used for each concentration, as well as a media only and three DMSO control wells. The cells and compounds were incubated at 37° C., 5% CO2 for 72 h before adding 20 μL of the CellTiter Aqueous One Solution (Promega) to each well and incubating at 37° C., 5% CO2 for an additional 3-4 h. The absorbance was taken at 490 nm in a spectrophotometer and the percentage of proliferation relative to DMSO-treated cells was calculated after correction from the blank well. IC50 were calculated using the GraphPad Prism software.

c-myc = assay: Inhibition of c-myc expression in MV4-11 cells (mRNA, real-time PCR); assay type: cell-based; conditions: Human AML MV4-11 cells, 3 h incubation
Description: MV4-11 cells (2.5×10^4 cells) were plated in 96 well U-bottom plates with test compound or DMSO (0.1%), and incubated for 3 h at 37° C. Cells were then harvested by centrifugation, lysed, and mRNA was isolated using the mRNA catcher plus kit (Invitrogen). Reverse transcription of the mRNA and duplex amplification of the c-myc and cyclophilin cDNAs was performed using the RNA Ultrasense kit (Invitrogen) and a ViiA7 real-time PCR machine (Applied Biosystems). IC50 values were determined from a dose response curve.

hIL-6 mRNA = assay: Inhibition of hIL-6 mRNA transcription in U937 cells; assay type: cell-based, human; conditions: LPS stimulation, active = IC50 <30 μM
Description: In this example, hIL-6 mRNA in tissue culture cells was quantitated to measure the transcriptional inhibition of hIL-6 when treated with a compound of the present disclosure.
A human leukemic monocyte lymphoma cell line (U937) was plated (3.2×10^4 cells per well) in a 96-well plate in […] RPMI-1640 containing 10% FBS and penicillin/streptomycin, and differentiated into macrophages for 3 days in 60 ng/mL PMA ([…]) at 37° C. in 5% CO2 prior to the addition of the compound of interest. The cells were pretreated for 1 h with the test compound prior to stimulation with 1 ug/mL lipopolysaccharide from Escherichia coli. The cells were incubated at 37° C. for 3 h before the cells were harvested. At time of harvest, the spent media was removed from the cells and the cells were rinsed in […] PBS. Cell lysis solution (70 μL) was added the cells in each well and incubated for 5-10 min at room temperature, to allow for complete cell lysis and detachment. mRNA was then prepared using the “mRNA Catcher PLUS plate” (Invitrogen), according to the protocol supplied. After the last wash, as much wash buffer as possible was aspirated without allowing the wells to dry. Elution buffer (E3, 70 μL) was then added to each well. mRNA was then eluted by incubating the mRNA Catcher PLUS plate with Elution Buffer for 5 min at 68° C. and then immediately placing the plate on ice.
The eluted mRNA isolated was then used in a one-step quantitative real-time PCR reaction, using components of the Ultra Sense Kit together with Applied Biosystems primer-probe mixes. Real-time PCR data was analyzed, normalizing the Ct values for hIL-6 to an internal control, prior to determining the fold induction of each unknown sample, relative to the control.

[2] = molecular target: T1, Brd4 bromodomain 1 (BRD4(1)) (Homo sapiens, UniProt O60885); assay: Inhibition of tetra-acetylated histone H4 binding to Brd4 bromodomain 1 (TR-FRET); conditions: tetra-acetylated histone H4 peptide, active = IC50 <30 μM
T1 construct: Illustrative results with the first bromodomain of Brd4; made in house; host or cells: E. coli BL21 (DE3)
Procedure, shortened: (§1)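 IC50 values come from dose-response curves of the 665 nm to 620 nm TR-FRET signal decrease, measured after 2 h at room temperature. Reactions contained 200 nM E. coli-expressed His-tagged bromodomain, 25-50 nM biotinylated tetra-acetylated H4 peptide, Eu-streptavidin plus XL665 anti-His antibody, with 30 mM HEPES pH 7.4, 320 mM KF and 0.2% DMSO.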

[3] = molecular target: T2, second bromodomain of Brd2 (BRD2(2)) (Homo sapiens, UniProt P25440); assay: Inhibition of tetra-acetylated histone H4 binding to Brd2 bromodomain 2 (TR-FRET); conditions: tetra-acetylated histone H4 peptide, active = IC50 <30 μM
T2 construct: made in house; host or cells: E. coli BL21 (DE3)
Procedure, shortened: as §1

T2 sequence (P25440 344-453 limits assumed): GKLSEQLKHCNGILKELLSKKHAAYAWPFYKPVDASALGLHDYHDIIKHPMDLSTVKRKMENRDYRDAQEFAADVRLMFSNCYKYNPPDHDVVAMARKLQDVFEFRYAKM

Compound | Cell Proliferation activity (IC50 <30 μM) [1] | c-myc activity (IC50 <30 μM) (c-myc) | IL-6 activity (IC50 <30 μM) (hIL-6 mRNA) | FRET activity (IC50 <30 μM) BRD4(1) [2] | FRET activity (IC50 <30 μM) BRD2(2) [3]
COc1cncc(Nc2cc(-c3c(C)noc3C)cn(Cc3ccccc3)c2=O)c1 [Example 231] | Active | Active | Active | Active | –
Cc1noc(C)c1-c1cc(N)c(=O)n(Cc2cncc(Cl)c2)c1 [Example 252, 3-amino-1-((5-chloropyridin-3-yl)methyl)-5-(3,5-dimethylisoxazol-4-yl)pyridin-2(1H)-one] | Active | Active | Active | Active | –
Cc1noc(C)c1-c1cc(N)c(=O)n(Cc2ccc(Cl)cn2)c1 [Example 255, 3-amino-1-((5-chloropyridin-2-yl)methyl)-5-(3,5-dimethylisoxazol-4-yl)pyridin-2(1H)-one] | Active | Active | – | Active | –
Cc1cc(Cn2cc(-c3c(C)noc3C)cc(N)c2=O)on1 [Example 240, 3-amino-5-(3,5-dimethylisoxazol-4-yl)-1-((3-methylisoxazol-5-yl)methyl)pyridin-2(1H)-one] | Active | Active | Active | Active | –
Cc1noc(C)c1-c1cc(N)c(=O)n(Cc2ccc(C#N)s2)c1 [Example 264, 5-((3-amino-5-(3,5-dimethylisoxazol-4-yl)-2-oxopyridin-1(2H)-yl)methyl)thiophene-2-carbonitrile] | Active | Active | Active | Active | –
Cc1noc(C)c1-c1ccc(=O)n(Cc2cccc(F)c2)n1 [Example 22, 6-(3,5-Dimethylisoxazol-4-yl)-2-(3-fluorobenzyl)pyridazin-3(2H)-one] | Not Active | Not Active | – | Active | Active
CC(=O)Nc1cc(-c2c(C)noc2C)cn(Cc2ccccc2)c1=O [Example 71, N-(1-Benzyl-5-(3,5-dimethylisoxazol-4-yl)-2-oxo-1,2-dihydropyridin-3-yl)acetamide] | – | Active | – | Active | Active
Cc1noc(C)c1-c1cc(N)c(=O)n(Cc2ccc(N3CCC3)cc2)c1 [Example 237, 3-Amino-1-(4-(azetidin-1-yl)benzyl)-5-(3,5-dimethylisoxazol-4-yl)pyridin-2(1H)-one] | Active | Active | Active | Active | –
Cc1noc(C)c1-c1cc(N)c(=O)n(Cc2ccc(C#N)cc2F)c1 [Example 261, 4-((3-amino-5-(3,5-dimethylisoxazol-4-yl)-2-oxopyridin-1(2H)-yl)methyl)-3-fluorobenzonitrile] | Active | Active | – | Active | –
Cc1noc(C)c1-c1cc(N)c(=O)n(Cc2ccc(N3CCOCC3)cc2)c1 [Example 238, 3-Amino-5-(3,5-dimethylisoxazol-4-yl)-1-(4-morpholinobenzyl)pyridin-2(1H)-one] | Active | Active | Active | Active | –
Cc1noc(C)c1-c1cc(N)c(=O)n(Cc2ccc(C#N)c(F)c2)c1 [Example 262, 4-((3-amino-5-(3,5-dimethylisoxazol-4-yl)-2-oxopyridin-1(2H)-yl)methyl)-2-fluorobenzonitrile] | Active | Active | – | Active | –
Cc1noc(C)c1-c1cc(N)c(=O)n(Cc2ncccc2Cl)c1 [Example 254, 3-amino-1-((3-chloropyridin-2-yl)methyl)-5-(3,5-dimethylisoxazol-4-yl)pyridin-2(1H)-one] | Active | Active | Active | Active | –
Cc1noc(C)c1-c1cc(N)c(=O)n(Cc2ccc(C(C)C)cc2)c1 [Example 242, 3-Amino-5-(3,5-dimethylisoxazol-4-yl)-1-(4-isopropylbenzyl)pyridin-2(1H)-one] | Active | Active | Active | Active | –
Cc1ccccc1Cn1cc(-c2c(C)noc2C)ccc1=O [Example 121, 5-(3,5-Dimethylisoxazol-4-yl)-1-(2-methylbenzyl)pyridin-2(1H)-one] | – | Active | Active | Active | Active
Cc1noc(C)c1-c1ccc(=O)n(Cc2ccccc2C#N)c1 [Example 135, 2-((5-(3,5-Dimethylisoxazol-4-yl)-2-oxopyridin-1(2H)-yl)methyl)benzonitrile] | – | Active | – | Active | Active
Cc1noc(C)c1-c1ccc(=O)n(Cc2ccsc2)c1 [Example 79, 5-(3,5-Dimethylisoxazol-4-yl)-1-(thiophen-3-ylmethyl)pyridin-2(1H)-one] | – | Active | Active | Active | Active
Cc1noc(C)c1-c1ccc(=O)n(Cc2ccccn2)n1 [Example 2, 6-(3,5-Dimethylisoxazol-4-yl)-2-(pyridin-2-ylmethyl)pyridazin-3(2H)-one] | Not Active | Not Active | – | Active | Active
Cc1noc(C)c1-c1ccc(=O)n(Cc2c(F)cccc2F)n1 [Example 90, 2-(2,6-Difluorobenzyl)-6-(3,5-dimethylisoxazol-4-yl)pyridazin-3(2H)-one] | Not Active | Not Active | – | Active | Active
Cc1noc(C)c1-c1ccc(=O)n(Cc2ccccc2Cl)n1 [Example 26, 2-(2-Chlorobenzyl)-6-(3,5-dimethylisoxazol-4-yl)pyridazin-3(2H)-one] | Active | – | Active | Active | Active
